Test results reported in patent publication US20140088124A1, “IMIDAZOLE DERIVATIVES” (priority 2011, published 2014).

Target: T1, human DGAT1 (Homo sapiens, UniProt O75907)
T1 sequence (O75907 1-488): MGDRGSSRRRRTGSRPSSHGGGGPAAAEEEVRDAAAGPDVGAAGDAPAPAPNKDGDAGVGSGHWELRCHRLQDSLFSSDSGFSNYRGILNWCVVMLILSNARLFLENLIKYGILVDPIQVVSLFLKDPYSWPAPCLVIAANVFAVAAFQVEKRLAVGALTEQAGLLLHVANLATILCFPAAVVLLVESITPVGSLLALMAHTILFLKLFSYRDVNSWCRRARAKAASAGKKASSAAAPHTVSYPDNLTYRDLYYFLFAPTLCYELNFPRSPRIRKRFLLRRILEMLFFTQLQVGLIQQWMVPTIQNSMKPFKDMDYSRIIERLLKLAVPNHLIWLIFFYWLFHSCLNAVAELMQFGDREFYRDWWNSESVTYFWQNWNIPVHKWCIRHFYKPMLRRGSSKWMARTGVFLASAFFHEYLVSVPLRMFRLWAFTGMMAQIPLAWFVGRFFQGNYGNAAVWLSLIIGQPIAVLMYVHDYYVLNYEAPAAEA
Assay: DGAT1 CPM Assay
Assay type: biochemical
Conditions: human DGAT1, CPM fluorescence, 1 hour incubation at room temperature
Description: 20 uL of 90 uM CPM reagent in 90% ethanol was added after 1 hour incubation at room temperature.

IC50 [nM] | SMILES
100 | O=C(O)c1ncc(OC2CCN(c3ccc(-c4nc5cc(Cl)ccc5[nH]4)cn3)CC2)cn1 [Example 127, 5-(1-(5-(5-chloro-1H-benzo[d]imidazol-2-yl)pyridin-2-yl)piperidin-4-yloxy)pyrimidine-2-carboxylic acid]
10 | O=C1CN([C@H]2CC[C@@H](OC3CCN(c4ccc(-c5nc6cc(F)c(F)cc6[nH]5)cn4)CC3)CC2)S(=O)(=O)N1 [Example 122]
324 | O=C(O)c1cncc(OC2CCN(c3ccc(-c4nc5cc(Cl)ccc5[nH]4)cn3)CC2)c1 [Example 128]
56 | O=C(O)CC1CC(OC2CCN(c3ccc(-c4nc5cc(F)ccc5[nH]4)cn3)CC2)C1 (centres unmarked) [Example 53]
85 | O=C(O)C1(C(=O)O)CC(OC2CCN(c3ccc(-c4nc5cc(C(F)(F)F)ccc5[nH]4)cn3)CC2)C1 [Example 95]
11 | O=C(O)[C@@H]1[C@@H]2C[C@H](OC3CCN(c4ccc(-c5nc6cc(C(F)(F)F)ccc6[nH]5)cn4)CC3)C[C@@H]21 [Example 135]
4 | O=C(O)C[C@H]1CC[C@H](OC2CCN(c3ccc(-c4nc5cc(F)c(F)cc5[nH]4)cn3)CC2)CC1 [Example 16, [trans-4-({1-[5-(5,6-difluoro-1H-benzimidazol-2-yl)pyridin-2-yl]piperidin-4-yl}oxy)cyclohexyl]acetic acid]
9 | O=C(O)[C@H]1C[C@@H](OC2CCN(c3ccc(-c4nc5ccc(C(F)(F)F)cc5[nH]4)cn3)CC2)C1 [Example 32, cis-3-[(1-{5-[6-(trifluoromethyl)-1H-benzimidazol-2-yl]pyridin-2-yl}piperidin-4-yl)oxy]cyclobutanecarboxylic acid]
4 | CC(C)(COC1CCN(c2ccc(-c3nc4cc(C(F)(F)F)ccc4[nH]3)cn2)CC1)C(=O)O [Example 34]
14 | O=C(NS(=O)(=O)c1ccccc1)[C@H]1CC[C@H](OC2CCN(c3ccc(-c4nc5cc(F)ccc5[nH]4)cn3)CC2)CC1 [Example 87]
27 | CCOc1ccc2nc(-c3ccc(N4CCC(O[C@H]5CC[C@H](CC(=O)O)CC5)CC4)nc3)[nH]c2n1 [Example 4, [trans-4-({1-[5-(5-ethoxy-3H-imidazo[4,5-b]pyridin-2-yl)pyridin-2-yl]piperidin-4-yl}oxy)cyclohexyl]acetic acid]
4 | C[C@]1(C(=O)O)CC[C@@H](OC2CCN(c3ccc(-c4nc5ccc(C(F)(F)F)cc5[nH]4)cn3)CC2)CC1 [Example 98, cis-1-methyl-4-[(1-{5-[6-(trifluoromethyl)-1H-benzimidazol-2-yl]pyridin-2-yl}piperidin-4-yl)oxy]cyclohexanecarboxylic acid]
25 | O=C(NS(=O)(=O)c1ccccn1)[C@H]1CC[C@H](OC2CCN(c3ccc(-c4nc5cc(F)ccc5[nH]4)cn3)CC2)CC1 [Example 84]
1 | O=C(O)Cc1ccc(OC2CCN(c3ccc(-c4nc5cc(Cl)ccc5[nH]4)cn3)CC2)cc1 [Example 129]
2 | O=C(O)CC1C[C@@H]2CC(OC3CCN(c4ccc(-c5nc6ccc(C(F)(F)F)cc6[nH]5)cn4)CC3)C[C@@H]2C1 (some centres unmarked) [Example 57]
23 | O=C(O)C[C@H]1CC[C@@H](O[C@H]2C[C@H]3C[C@@H]2CN3c2ccc(-c3nc4cc(F)ccc4[nH]3)cn2)CC1 (single isomer, unassigned; enantiomer 1) [Example 28, [cis-4-({2-[5-(5-fluoro-1-benzimidazol-2-yl)pyridin-2-yl]-2-azabicyclo[2.2.1]hept-5-yl}oxy)cyclohexyl]acetic acid enantiomer 1]
6 | O=C(O)CC1CC(OC2CCN(c3ccc(-c4nc5ccc(C(F)(F)F)cc5[nH]4)cn3)CC2)C1 (centres unmarked) [Example 51]
15 | O=C(O)C1(COC2CCN(c3ccc(-c4nc5ccc(F)cc5[nH]4)cn3)CC2)CCC1 [Example 39]
19 | CS(=O)(=O)NC(=O)[C@H]1CC[C@H](OC2CCN(c3ccc(-c4nc5cc(F)ccc5[nH]4)cn3)CC2)CC1 [Example 86]
45 | O=C1CN([C@H]2CC[C@@H](OC3CCN(c4ccc(-c5nc6ccccc6[nH]5)cn4)CC3)CC2)S(=O)(=O)N1 [Example 121]
